Data on 40 compounds can be found in patent US9776979B2, “EBI2 modulators” (Sanford-Burnham Medical Research Institute, priority 2013, dated 2017).

The target of the test is EBI2 (Homo sapiens, UniProt P32249). Description: Cell-based luminescent assay (EBI2 modulation). The settings on record: cell-based luminescence; 7a,25-OHC final assay concentration 80 nM; 60 minutes incubation; read-out: IC50. An outline of the steps: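 Cells plated overnight at 37° C, then exposed to compound at 4-5 uM final with 80 nM 7a,25-OHC agonist for 60 min at 37° C. Luminescence read after 60 min detection at 25° C in the dark; values normalized to neutral and stimulator controls and plate-pattern corrected.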
EBI2, sequence (P32249 whole entry): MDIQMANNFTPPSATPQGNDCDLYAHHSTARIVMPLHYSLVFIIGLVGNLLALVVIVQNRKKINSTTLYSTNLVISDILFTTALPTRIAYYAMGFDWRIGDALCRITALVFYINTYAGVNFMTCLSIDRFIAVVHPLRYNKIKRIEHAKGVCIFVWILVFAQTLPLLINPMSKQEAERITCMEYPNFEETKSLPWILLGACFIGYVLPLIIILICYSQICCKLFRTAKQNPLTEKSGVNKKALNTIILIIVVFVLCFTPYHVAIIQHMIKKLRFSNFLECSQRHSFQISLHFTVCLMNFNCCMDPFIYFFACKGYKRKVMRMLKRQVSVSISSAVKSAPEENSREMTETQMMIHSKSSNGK

With `O=C(/C=C/c1ccccc1)N1CCN(Cc2cccc(Cl)c2)CC1` [Compound C365, (2E)-1-{4-[(3-chlorophenyl)methyl]piperazinyl}-3-phenylprop-2-en-1-one], the IC50 (commonly the concentration at which inhibition is half-maximal) is less than 100 nM.

As to `O=C(c1ccc(Cl)cc1)N1CCN(C(=O)c2cc3ccc(F)cc3[nH]2)CC1` [Compound C366, 4-[(4-chlorophenyl)carbonyl]piperazinyl 6-fluoroindol-2-yl ketone], the IC50 was 100 to 500 nM.

For the compound `O=C(/C=C/c1ccc(F)cc1)N1CCN(S(=O)(=O)c2cccs2)CC1` [Compound C367, (2E)-3-(4-fluorophenyl)-1-[4-(2-thienylsulfonyl)piperazinyl]prop-2-en-1-one], the IC50 was less than 100 nM.

As for `CCCCN1CCN(C(=O)c2cc3cc(Cl)ccc3[nH]2)CC1` [Compound C368, 4-butylpiperazinyl 5-chloroindol-2-yl ketone], the 50% inhibitory concentration (IC50) was less than 100 nM.

In the case of `O=C(C#Cc1ccc(Cl)cc1)N1CCN(Cc2ccc(F)cc2)CC1` [Compound C369, 3-(4-chlorophenyl)-1-{4-[(4-fluorophenyl)methyl]piperazinyl}prop-2-yn-1-one], the IC50 is less than 100 nM.

Turning to `O=C(c1cc2cc(Br)ccc2[nH]1)N1CCN(Cc2ccc(C(F)(F)F)cc2)CC1` [Compound C371, 5-bromoindol-2-yl 4-{[4-(trifluoromethyl)phenyl]methyl}piperazinyl ketone], the 50% inhibitory concentration (IC50) is less than 100 nM.

In the case of `COc1ccc(CN2CCN(C(=O)C#Cc3ccc(Cl)cc3)CC2)cc1` [Compound C372, 3-(4-chlorophenyl)-1-{4-[(4-methoxyphenyl)methyl]piperazinyl}prop-2-yn-1-one], the concentration for half-maximal inhibition (IC50) is less than 100 nM.

As for `O=C(/C=C/c1ccccc1)N1CCN(Cc2ccccc2Cl)CC1` [Compound C374, (2E)-1-{4-[(2-chlorophenyl)methyl]piperazinyl}-3-phenylprop-2-en-1-one], the IC50 is less than 100 nM.

For the compound `O=C(c1ccc(C(F)(F)F)cc1)N1CCN(C(=O)c2cc3ccc(Br)cc3[nH]2)CC1` [Compound C375, 6-bromoindol-2-yl 4-{[4-(trifluoromethyl)phenyl]carbonyl}piperazinyl ketone], the IC50 is 100 to 500 nM.

With `O=C(/C=C/c1ccc(Br)cc1F)N1CCN(S(=O)(=O)c2ccc(Br)cc2)CC1` [Compound C377, (2E)-3-(4-bromo-2-fluorophenyl)-1-{4-[(4-bromophenyl)sulfonyl]piperazinyl}prop-2-en-1-one], the IC50 was less than 100 nM.

As for `O=C(c1cc2cc(Cl)ccc2[nH]1)N1CCN(C(=O)c2ccc(F)cc2F)CC1` [Compound C378, 4-[(2,4-difluorophenyl)carbonyl]piperazinyl 5-chloroindol-2-yl ketone], the half-maximal inhibitory concentration (IC50) was less than 100 nM.

Regarding `O=C(c1cc2sccc2[nH]1)N1CCN(C(c2ccccc2)c2ccccc2)CC1` [Compound C380, 4-(diphenylmethyl)piperazinyl thiopheno[2,3-d]pyrrol-5-yl ketone], the 50% inhibitory concentration (IC50) was less than 100 nM.

On to `O=C(c1ccc(Br)cc1)N1CCN(C(=O)c2ccc3ccccc3c2)CC1` [Compound C381, 4-bromophenyl 4-(2-naphthylcarbonyl)piperazinyl ketone], for which the half-inhibitory concentration (IC50) was less than 100 nM.

As to `O=C(c1ccc(B(O)O)cc1)N1CCN(C(=O)c2cc3ccc(Br)cc3[nH]2)CC1` [Compound C382, 4-(4-(6-bromo-1H-indole-2-carbonyl)piperazine-1-carbonyl)phenylboronic acid], the IC50 is less than 100 nM.

On to `O=C(C#Cc1ccc(Cl)cc1)N1CCN(Cc2ccc(Cl)cc2)CC1` [Compound C384, 3-(4-chlorophenyl)-1-{4-[(4-chlorophenyl)methyl]piperazinyl}prop-2-yn-1-one], for which the half-inhibitory concentration (IC50) was less than 100 nM.

`COc1ccc(/C=C/C(=O)N2CCN(S(=O)(=O)c3ccc(C(C)(C)C)cc3)CC2)cc1` [Compound C385, (2E)-1-(4-{[4-(tert-butyl)phenyl]sulfonyl}piperazinyl)-3-(4-methoxyphenyl)prop-2-en-1-one]: the IC50 was less than 100 nM.

For the compound `O=C(c1cc2cc(Cl)ccc2[nH]1)N1CCC(Oc2ccc(C(F)(F)F)cc2)CC1` [Compound C390, 5-chloroindol-2-yl 4-[4-(trifluoromethyl)phenoxy]piperidyl ketone], the 50% inhibitory concentration (IC50) was in the range of 100 to 500 nM.

As to `O=C(c1ccc(C(F)(F)F)cc1)N1CCN(C(=O)c2cc3ccc(Cl)cc3[nH]2)CC1` [Compound C391, 6-chloroindol-2-yl 4-{[4-(trifluoromethyl)phenyl]carbonyl}piperazinyl ketone], the half-inhibitory concentration (IC50) is less than 100 nM.

`CC(C)CN1CCN(C(=O)/C=C/c2ccccc2)CC1` [Compound C392, (2E)-1-[4-(methylpropyl)piperzinyl]-3-phenylprop-2-en-1-one]: the IC50 was less than 100 nM.

As for `N#Cc1cccc(C(=O)N2CCN(C(=O)c3cc4cc(Cl)ccc4[nH]3)CC2)c1` [Compound C395, 3-({4-[(5-chloroindol-2-yl)carbonyl]piperazinyl}carbonyl)benzenecarbonitrile], the IC50 is less than 100 nM.

Turning to `O=C(Nc1cccc(Cl)c1)C1CCN(C(=O)c2cc3cc(Cl)ccc3[nH]2)CC1` [Compound C396, {1-[(5-chloroindol-2-yl)carbonyl](4-piperidyl)}-N-(3-chlorophenyl)carboxamide], the IC50 was less than 100 nM.

Turning to `O=Cc1ccc(C(=O)N2CCN(C(=O)c3cc4cc(Cl)ccc4[nH]3)CC2)cc1` [Compound C397, 4-({4-[(5-chloroindol-2-yl)carbonyl]piperazinyl}carbonyl)benzaldehyde], the half-maximal inhibitory concentration (IC50) is less than 100 nM.

As to `O=C(C#Cc1ccc(Cl)cc1)N1CCN(C(=O)c2ccc(F)cc2C(F)(F)F)CC1` [Compound C399, 3-(4-chlorophenyl)-1-(4-{[4-fluoro-2-(trifluoromethyl)phenyl]carbonyl}piperazinyl)prop-2-yn-1-one], the IC50 is less than 100 nM.

Consider `Cc1cccc(N2CCN(C(=O)c3cc4cc(Cl)ccc4[nH]3)CC2)c1C` [Compound C400, 4-(2,3-dimethylphenyl)piperazinyl 5-chloroindol-2-yl ketone], for which the IC50 is less than 100 nM.

With `O=C(C#Cc1ccc(Br)cc1)N1CCN(Cc2ccc(F)cc2)CC1` [Compound C401, 3-(4-bromophenyl)-1-{4-[(4-fluorophenyl)methyl]piperazinyl}prop-2-yn-1-one], the concentration for half-maximal inhibition (IC50) is less than 100 nM.

In the case of `O=C(c1cc2cc(Cl)ccc2[nH]1)N1CCN(Cc2ccc(C(F)(F)F)c(F)c2)CC1` [Compound C402, 5-chloroindol-2-yl 4-{[3-fluoro-4-(trifluoromethyl)phenyl]methyl}piperazinyl ketone], the 50% inhibitory concentration (IC50) was less than 100 nM.

Take `O=C(c1cc2cc(Cl)ccc2[nH]1)N1CCN(Cc2cccc(-c3ccccc3)c2)CC1` [Compound C403, 5-chloroindol-2-yl 4-[(3-phenylphenyl)methyl]piperazinyl ketone]: the IC50 is less than 100 nM.

For `O=C(/C=C/c1ccc(Br)cc1F)N1CCN(S(=O)(=O)c2ccccc2)CC1` [Compound C404, (2E)-3-(4-bromo-2-fluorophenyl)-1-[4-(phenylsulfonyl)piperazinyl]prop-2-en-1-one], the IC50 is less than 100 nM.

Take `O=C(CCc1ccc(F)cc1)N1CCN(S(=O)(=O)/C=C/c2ccccc2)CC1` [Compound C406, 1-{4-[((1E)-2-phenylvinyl)sulfonyl]piperazinyl}-3-(4-fluorophenyl)propan-1-one]: the IC50 fell in the range of 100 to 500 nM.

On to `O=C(/C=C/c1ccccc1)N1CCN(CCOc2ccc(Cl)cc2Cl)CC1` [Compound C407, (2E)-1-{4-[2-(2,4-dichlorophenoxy)ethyl]piperazinyl}-3-phenylprop-2-en-1-one], for which the IC50 is 100 to 500 nM.

For the compound `O=C(C#Cc1ccc(Br)cc1)N1CCN(Cc2ccc(C(F)(F)F)cc2)CC1` [Compound C408, 3-(4-bromophenyl)-1-(4-{[4-(trifluoromethyl)phenyl]methyl}piperazinyl)prop-2-yn-1-one], the half-maximal inhibitory concentration (IC50) is 100 to 500 nM.

On to `O=C(c1ccc(B(O)O)cc1)N1CCN(C(=O)c2cc3cc(Cl)ccc3[nH]2)CC1` [Compound C409, 4-(4-(5-chloro-1H-indole-2-carbonyl)piperazine-1-carbonyl)phenylboronic acid], for which the IC50 was in the range of 100 to 500 nM.

As for `O=C(c1cc2cc(Cl)ccc2[nH]1)N1CCC(Oc2ccccc2)CC1` [Compound C413, 5-chloroindol-2-yl 4-phenoxypiperidyl ketone], the IC50 is 100 to 500 nM.

Turning to `O=C(Oc1ccccc1)N1CCN(C(=O)c2cc3cc(Cl)ccc3[nH]2)CC1` [Compound C416, phenyl 4-[(5-chloroindol-2-yl)carbonyl]piperazinecarboxylate], the IC50 was 100 to 500 nM.

Regarding `O=C(Nc1cccc(F)c1)C1CCN(C(=O)c2cc3cc(Cl)ccc3[nH]2)CC1` [Compound C417, {1-[(5-chloroindol-2-yl)carbonyl](4-piperidyl)}-N-(3-fluorophenyl)carboxamide], the half-inhibitory concentration (IC50) is 100 to 500 nM.

In the case of `O=C(c1cc2cc(Cl)ccc2[nH]1)N1CCN(Cc2ccc(F)c(C(F)(F)F)c2)CC1` [Compound C420, 5-chloroindol-2-yl 4-{[4-fluoro-3-(trifluoromethyl)phenyl]methyl}piperazinyl ketone], the concentration for half-maximal inhibition (IC50) was 100 to 500 nM.

On to `COc1ccc(-c2ccc(S(=O)(=O)N3CCN(C(=O)c4cc5cc(Cl)ccc5[nH]4)CC3)cc2)cc1` [Compound C421, 5-chloroindol-2-yl 4-{[4-(4-methoxyphenyl)phenyl]sulfonyl}piperazinyl ketone], for which the IC50 is 100 to 500 nM.

Regarding `O=C(c1cc2cc(Cl)ccc2[nH]1)N1CCN(Cc2cc(C(F)(F)F)cc(C(F)(F)F)c2)CC1` [Compound C423, 4-{[3,5-bis(trifluoromethyl)phenyl]methyl}piperazinyl 5-chloroindol-2-yl ketone], the IC50 lay in the range of 100 to 500 nM.

In the case of `O=C(c1cc2cc(Cl)ccc2[nH]1)N1CCN(Cc2ccc(F)cc2C(F)(F)F)CC1` [Compound C426, 5-chloroindol-2-yl 4-{[4-fluoro-2-(trifluoromethyl)phenyl]methyl}piperazinyl ketone], the IC50 was 100 to 500 nM.

Regarding `O=C(c1cc2cc(Cl)ccc2[nH]1)N1CCN(Cc2ccc(F)cc2F)CC1` [Compound C427, 4-[(2,4-difluorophenyl)methyl]piperazinyl 5-chloroindol-2-yl ketone], the half-inhibitory concentration (IC50) lay in the range of 100 to 500 nM.
